{
  "source": "patent US20240083933A1",
  "about": "“DISACCHARIDES FOR TREATING BONE DISEASES” (UNIVERSITE DE PICARDIE JULES VERNE, priority 2020, published 2024)",
  "key": {"[1]": {"system": "bone defects in the skull of rats", "experiment": "Cranial bone defect model with implanted support", "format": "in vivo", "parameters": "key to BMD / BV/TV: =: no difference; N/A: not applicable; *p ≤ 0.05; **p ≤ 0.01; ***p ≤ 0.001", "procedure": "The Sprague-Dawley rats are provided by Janvier Labs (Le Genest-Saint-Isle, France) and housed in the PLATAN animal facility of the UPJV. The rats were maintained under a 12-hour day-night cycle, at a temperature of 22±2° C. and 50% humidity.\nIn order to assess the osteoinductive capacity of the disaccharide via the acceleration of the phenomenon of bone reconstruction and to determine the concentration of the optimal DP2 molecule, and the nature of the most adapted support under the physiological conditions of the fracture consolidation operation (inflammatory reaction, cellular activity), 2 bone defects were made in the skull of rats.\nThree different types of supports were tested and two different concentrations of DP2.\nIn order to reduce the number of used rats, two bone defects were made per rat; one defect was left blank and was used as an internal control for each rat. Thus, the support-only group is considered the control of the experiment. […] For the support-only condition, the latter is mixed with sterile saline solution.\nAfter being assigned to one of the 12 groups shown above, the rat was anesthetized using IsoVet (isoflurane) in the mask (5% in the induction and 2 to 3% in maintenance dose). After 5 min, a nociception test was performed by pinching the paw or tail of the animal to check the effectiveness of the anesthesia. On the workstation, a shaving and a disinfection with vetedine were then carried out next to the incision.\nA local anesthesia was also carried out with 7 mg/kg of 2% lidocaine (20 mg/mL) diluted to 5 mg/ml.\nOn the workstation, the incision of the skin with a 15 blade cold scalpel along the midline was performed, followed by the detachment of the subcutaneous tissues. Then, the incision along the midline and the lifting and lateral displacement of the periosteum were made. […] Saline solution was used during the milling steps. The implantation of the support, depending on the group, on the left side was made; the right side, without support, was used as a control to assess the effect of the lesion and the natural repair processes without the presence of support. The periosteum was put back in place and sutured with 7/0 skin suture. The skin was also put back in place and closed with 4/0 skin suture.\nThe rat was injected with buprenorphine at a dose of 0.05 mg/kg subcutaneously as an analgesic. After awakening, the rat was returned to its conventional housing conditions, by putting 1 rat per cage. The animals were supervised daily and animal welfare monitoring was carried out."}, "[2]": {"experiment": "Acetate migration DP2/DP2′ in solution (stability)", "format": "physicochemical", "details": "in methanol", "procedure": "The compound DP2′ was extracted from the DP2-DP2′ mixture which is formed when the compound DP2 is dissolved in water. The compound DP2′ has been separated by preparative HPLC chromatography with water as elution solvent.\nThe inventors have observed that when the compound DP2′ was in water, the delocalization of the acetate group was also present, but with very slow kinetics compared to the DP2→DP2′ reaction. Thus, a solution of DP2′ in water which is left to rest contains, after 44 days, 10 to 15% of DP2. The DP2′ therefore remains alone in the water for a given duration which is quite long. It is therefore possible to test the biological effect of DP2′ in solution in water.\nSimilarly, the inventors have observed that the kinetics of the DP2→DP2′ reaction is such that it is also possible to test the biological activity of the compound DP2 alone after extraction of the formed compound DP2′. Thus, the two compounds DP2 and DP2′ can coexist or not in water for a given duration.\nIn methanol, for example, the compound DP2 is therefore alone.\nThere is about ⅔ of DP2R2 for ⅓ of DP2′. The compound DP2′ comes from a migration of the acetate group (R2) on the 30H position. The compound DP2′ could be isolated and synthesized as previously indicated. […]"}, "[3]": {"details": "Bio-oss support + DP2R2 3 mM vs Bio-oss only, D 14"}, "[4]": {"details": "Bio-oss support + DP2R2 3 mM vs Bio-oss only, D 29"}, "[5]": {"details": "Bio-oss support + DP2R2 3 mM vs Bio-oss only, D 63"}, "[6]": {"details": "Bio-oss support + DP2R2 3 mM vs Bio-oss only, D 91"}, "[7]": {"details": "Bio-oss support + DP2R2 9 mM vs Bio-oss only, D 14"}, "[8]": {"details": "Bio-oss support + DP2R2 9 mM vs Bio-oss only, D 29"}, "[9]": {"details": "Bio-oss support + DP2R2 9 mM vs Bio-oss only, D 63"}, "[10]": {"details": "Bio-oss support + DP2R2 9 mM vs Bio-oss only, D 91"}, "[11]": {"details": "Collagen support + DP2R2 3 mM vs Collagen only, D 14"}, "[12]": {"details": "Collagen support + DP2R2 3 mM vs Collagen only, D 29"}, "[13]": {"details": "Collagen support + DP2R2 3 mM vs Collagen only, D 63"}, "[14]": {"details": "Collagen support + DP2R2 3 mM vs Collagen only, D 91"}, "[15]": {"details": "Collagen support + DP2R2 9 mM vs Collagen only, D 14"}, "[16]": {"details": "Collagen support + DP2R2 9 mM vs Collagen only, D 29"}, "[17]": {"details": "Collagen support + DP2R2 9 mM vs Collagen only, D 63"}, "[18]": {"details": "Collagen support + DP2R2 9 mM vs Collagen only, D 91"}, "[19]": {"details": "MBCP support + DP2R2 3 mM vs MBCP only, D 14"}, "[20]": {"details": "MBCP support + DP2R2 3 mM vs MBCP only, D 29"}, "[21]": {"details": "MBCP support + DP2R2 3 mM vs MBCP only, D 63"}, "[22]": {"details": "MBCP support + DP2R2 3 mM vs MBCP only, D 91"}, "[23]": {"details": "MBCP support + DP2R2 9 mM vs MBCP only, D 14"}, "[24]": {"details": "MBCP support + DP2R2 9 mM vs MBCP only, D 29"}, "[25]": {"details": "MBCP support + DP2R2 9 mM vs MBCP only, D 63"}, "[26]": {"details": "MBCP support + DP2R2 9 mM vs MBCP only, D 91"}},
  "data": [
    {"smiles": "CCCO[C@H]1OC(CO)[C@@H](O[C@@H]2OC(CO)[C@@H](O)C(O)C2NC(C)=O)C(O)C1OC(C)=O", "note": "(stereo partly drawn) [DP2, n-propyl, 2-O-acetyl-α-D-Glucopyranoside, 4-O-(2-acetamido-2-deoxy-β-D-glucopyranosyl)]", "values": [
      {"measurement": "BMD", "setting": "[1]; [3]", "result": "="},
      {"measurement": "BV/TV", "setting": "[1]; [3]", "result": "="},
      {"measurement": "BMD", "setting": "[1]; [4]", "result": "="},
      {"measurement": "BV/TV", "setting": "[1]; [4]", "result": "="},
      {"measurement": "BMD", "setting": "[1]; [5]", "result": "="},
      {"measurement": "BV/TV", "setting": "[1]; [5]", "result": "="},
      {"measurement": "BMD", "setting": "[1]; [6]", "result": "="},
      {"measurement": "BV/TV", "setting": "[1]; [6]", "result": "="},
      {"measurement": "BMD", "setting": "[1]; [7]", "result": "="},
      {"measurement": "BV/TV", "setting": "[1]; [7]", "result": "="},
      {"measurement": "BMD", "setting": "[1]; [8]", "result": "="},
      {"measurement": "BV/TV", "setting": "[1]; [8]", "result": "="},
      {"measurement": "BMD", "setting": "[1]; [9]", "result": "="},
      {"measurement": "BV/TV", "setting": "[1]; [9]", "result": "="},
      {"measurement": "BMD", "setting": "[1]; [10]", "result": "="},
      {"measurement": "BV/TV", "setting": "[1]; [10]", "result": "="},
      {"measurement": "BMD", "setting": "[1]; [11]", "result": "↑*"},
      {"measurement": "BV/TV", "setting": "[1]; [11]", "result": "="},
      {"measurement": "BMD", "setting": "[1]; [12]", "result": "="},
      {"measurement": "BV/TV", "setting": "[1]; [12]", "result": "="},
      {"measurement": "BMD", "setting": "[1]; [13]", "result": "="},
      {"measurement": "BV/TV", "setting": "[1]; [13]", "result": "="},
      {"measurement": "BMD", "setting": "[1]; [14]", "result": "="},
      {"measurement": "BV/TV", "setting": "[1]; [14]", "result": "="},
      {"measurement": "BMD", "setting": "[1]; [15]", "result": "="},
      {"measurement": "BV/TV", "setting": "[1]; [15]", "result": "="},
      {"measurement": "BMD", "setting": "[1]; [16]", "result": "="},
      {"measurement": "BV/TV", "setting": "[1]; [16]", "result": "="},
      {"measurement": "BMD", "setting": "[1]; [17]", "result": "="},
      {"measurement": "BV/TV", "setting": "[1]; [17]", "result": "="},
      {"measurement": "BMD", "setting": "[1]; [18]", "result": "="},
      {"measurement": "BV/TV", "setting": "[1]; [18]", "result": "="},
      {"measurement": "BMD", "setting": "[1]; [19]", "result": "="},
      {"measurement": "BV/TV", "setting": "[1]; [19]", "result": "="},
      {"measurement": "BMD", "setting": "[1]; [20]", "result": "↑*"},
      {"measurement": "BV/TV", "setting": "[1]; [20]", "result": "="},
      {"measurement": "BMD", "setting": "[1]; [21]", "result": "↑*"},
      {"measurement": "BV/TV", "setting": "[1]; [21]", "result": "="},
      {"measurement": "BMD", "setting": "[1]; [22]", "result": "↑***"},
      {"measurement": "BV/TV", "setting": "[1]; [22]", "result": "="},
      {"measurement": "BMD", "setting": "[1]; [23]", "result": "="},
      {"measurement": "BV/TV", "setting": "[1]; [23]", "result": "="},
      {"measurement": "BMD", "setting": "[1]; [24]", "result": "↑*"},
      {"measurement": "BV/TV", "setting": "[1]; [24]", "result": "="},
      {"measurement": "BMD", "setting": "[1]; [25]", "result": "↑***"},
      {"measurement": "BV/TV", "setting": "[1]; [25]", "result": "="},
      {"measurement": "BMD", "setting": "[1]; [26]", "result": "↑*"},
      {"measurement": "BV/TV", "setting": "[1]; [26]", "result": "="},
      {"measurement": "bone mineralization", "setting": "[1]; collagen+DP2 [3 mM], D14", "result": "increases the bone mineralization"},
      {"measurement": "in-vivo toxic effect (survival, infection, hematoma, necrosis at defect sites)", "setting": "[1]; rats, 3 months after implantation", "result": "does not have any in-vivo toxic effect"},
      {"measurement": "bone mineralization relative MBCP alone", "setting": "[1]; the 2 MBCP+DP2 groups (3 mM, 9 mM), from D29 post-surgery", "result": "increase the bone mineralization"},
      {"measurement": "delocalization of the acetate group", "setting": "[2]", "result": "no delocalization of the acetate group has been observed"}
    ]}
  ]
}
